According to patent publication US10660928B2, “Pharmaceutical composition containing combination extracts of Moutan Root Bark, Angelica Dahurica Root, bupleurum root or fractions thereof for prevention and treatment of neurodegenerative disorder” (UNIVERSITY-INDUSTRY COOPERATION GROUP OF KYUNG HEE …, priority 2014, dated 2020):

How the values were obtained:
[1] = test system: SH-SY5Y, the human neuroblastoma cell line; test: Cell survival rate (calcein) in normal cells, cytotoxicity; format: cell-based; settings: human, 4 h, 0.5 μg/ml
Experimental: Particularly, SH-SY5Y, the human neuroblastoma cell line, was inoculated in DMEM/F12 (Dulbeco's Modified Eagle's Medium & Ham's F12; Gibco, USA) supplemented with 10% FBS, followed by culture in a 37° C., 5% CO2/95% air (O2) incubator. Then, the cultured cells were transferred into a serum free medium at the density of 2.5×10^4 cells/well. […] The cells were collected and the cell survival rate was measured by using calcein. The survival rate of the cells that were increased or decreased compared with that of the normal control cells not-treated with the extract or its active component above and instead treated with DMSO was calculated and presented as percentage (%). Particularly, SH-SY5Y cells were cultured by the same manner as described in Experimental Example <1-1>. The cultured cells were transferred in a serum free medium at the density of 2.5×10^4 cells/well. […] The cells were collected and the cell survival rate was measured by using calcein. The cell survival rate that was increased or decreased compared with that of the normal control group not-treated with the extract or its active component above and instead treated with DMSO was calculated and presented as percentage (%).

[2] = test system: SH-SY5Y cells; test: ATP assay, endoplasmic reticulum stress induced by thapsigargin or tunicamycin; format: cell-based, human; settings: treatment 0.5 μg/ml
Experimental: Particularly, SH-SY5Y cells were cultured by the same manner as described in Experimental Example <2-2>, and endoplasmic reticulum stress was induced. Then, the intracellular ATP level was measured by the same manner as described in Experimental Example <1-3>. The normal control was not treated with the extract of the invention or the active component thereof but treated with DMSO alone. All the results were presented as % by the normal control to present the intracellular ATP level. The negative control was not treated with the extract or the active component but treated with 0.5 μg/ml of thapsigargin or 1.0 μg/ml of tunicamycin alone to induce endoplasmic reticulum stress. Then, the Intracellular ATP level was measured by the same manner as described above.

[3] = test system: SH-SY5Y cells; test: MTT assay, endoplasmic reticulum stress induced by thapsigargin or tunicamycin; format: cell-based, human; settings: treatment 0.5 μg/ml
Experimental: Particularly, SH-SY5Y cells were cultured by the same manner as described in Experimental Example <1-2>. The cells were treated with 1.0 ug/ml of the Angelica Dahurica Root extract prepared in Example <1-2> or 0.5 μg/ml or 1.0 μg/ml of Imperatorin, the active component thereof, followed by culture for 4 hours. The cells were treated with 0.5 μg/ml of thapsigargin (Thap) or 1 μg/ml of tunicamycin (Tuni), followed by culture for 24 hours to induce endoplasmic reticulum stress. Then, MTT assay was performed by the same manner as described in Experimental Example <1-2>. Compared with the normal control cells not treated with the extract or the active component thereof but treated with DMSO, the damage of mitochondria complex 1 in the cells, either increased or decreased, was investigated. The negative control was treated with 0.5 μg/ml of thapsigargin or 1 μg/ml of tunicamycin to cause endoplasmic reticulum stress but not treated with the extract or the active component thereof, followed by MTT assay by the same manner as described above.

[4] = test system: GRP78; test: RT-PCR of endoplasmic reticulum stress marker GRP78, thapsigargin; format: cell-based, human; settings: treatment 0.5 μg/ml, thapsigargin 0.5 μg/ml; negative control 100.00
Experimental: (§1) Particularly, SH-SY5Y cells were cultured by the same manner as described in Experimental Example <2-2>, and endoplasmic reticulum stress was induced. Then, RT-PCR was performed with the cells having endoplasmic reticulum stress by the same manner as described in Experimental Example <1-4>, followed by electrophoresis to investigate the expression levels of GRP78 and XBP1p genes on 1.5% agarose gel under UV. The normal control was not treated with the extract of the invention or the active component thereof but treated with DMSO alone. The negative control was not treated with the extract or the active component but treated with 0.5 μg/ml of thapsigargin alone to induce endoplasmic reticulum stress. Then, the expression of the endoplasmic reticulum stress marker gene was confirmed by the same manner as described above.
(§2) Particularly, SH-SY5Y cells were cultured by the same manner as described in Experimental Example <2-2>, and endoplasmic reticulum stress was induced. Then, RT-PCR was performed with the cells having endoplasmic reticulum stress by the same manner as described in Experimental Example <1-4>, followed by electrophoresis to investigate the expression levels of GRP78 and XBP1p genes on 1.5% agarose gel under UV. The normal control was not treated with the extract of the invention but treated with DMSO alone. […]

[5] = test system: XBP1p; test: RT-PCR of endoplasmic reticulum stress marker XBP1p, thapsigargin; format: cell-based, human; settings: treatment 0.5 μg/ml, thapsigargin 0.5 μg/ml; negative control 100.00
Experimental: as §1, §2

CC(C)=CCOc1c2occc2cc2ccc(=O)oc12 [Imperatorin, 9-[(3-Methyl-2-buten-1-yl)oxy]-7h-furo[3,2-g][1]benzopyran-7-one]
Cell survival rate (% of control) [1]: 101.16 ± 0.59 % of control | Intracellular ATP content (% of control) ([2]; inducer thapsigargin 0.5 μg/ml): 104.85 ± 5.13 % of control | Intracellular ATP content (% of control) ([2]; inducer tunicamycin 1.0 μg/ml): 86.00 ± 1.18 % of control | MTT (% of control) ([3]; inducer thapsigargin 0.5 μg/ml): 86.23 ± 5.31 % of control | MTT (% of control) ([3]; inducer tunicamycin 1.0 μg/ml): 84.93 ± 3.68 % of control | GRP78/18S mRNA [4]: 2.97 ± 0.05 | XBP1p/18S mRNA [5]: 4.01 ± 0.05
